Laboratory results reported in patent publication US9908890B2, “Selective inhibitors of constitutive androstane receptor” (ST. JUDE CHILDREN'S RESEARCH HOSPITAL, priority 2014, dated 2018).

Assays:
GST-hCAR-LBD = biological target: T1, GST-hCAR-LBD (Homo sapiens, UniProt Q14994); assay: CoAct binding inverse agonist assay (LanthaScreen TR-FRET, fluorescent PGC-1α coactivator recruitment/repression); assay type: biochemical
T1 construct: purchased Life Technologies (Carlsbad, Calif.) or Invitrogen (Carlsbad, Calif.)
T1 sequence (Q14994 109-352 limits assumed): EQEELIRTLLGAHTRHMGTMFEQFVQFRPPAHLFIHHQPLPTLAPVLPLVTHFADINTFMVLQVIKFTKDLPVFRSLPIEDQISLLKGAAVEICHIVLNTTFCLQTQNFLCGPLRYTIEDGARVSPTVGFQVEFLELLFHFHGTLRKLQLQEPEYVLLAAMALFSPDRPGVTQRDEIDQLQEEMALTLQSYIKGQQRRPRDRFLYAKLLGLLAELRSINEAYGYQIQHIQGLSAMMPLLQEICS

[1] = biological target: T2, hCAR1 interaction with coregulators (SRC-1, TIF2, SMRTα, mNCoR) (Homo sapiens, UniProt Q14994); assay: Mammalian two-hybrid assay (HEK293T cells); assay type: cell-based
T2 construct: expressed in transfected cells; host or cells: HEK293T
T2 sequence (Q14994 1-348 isoform Q14994-2): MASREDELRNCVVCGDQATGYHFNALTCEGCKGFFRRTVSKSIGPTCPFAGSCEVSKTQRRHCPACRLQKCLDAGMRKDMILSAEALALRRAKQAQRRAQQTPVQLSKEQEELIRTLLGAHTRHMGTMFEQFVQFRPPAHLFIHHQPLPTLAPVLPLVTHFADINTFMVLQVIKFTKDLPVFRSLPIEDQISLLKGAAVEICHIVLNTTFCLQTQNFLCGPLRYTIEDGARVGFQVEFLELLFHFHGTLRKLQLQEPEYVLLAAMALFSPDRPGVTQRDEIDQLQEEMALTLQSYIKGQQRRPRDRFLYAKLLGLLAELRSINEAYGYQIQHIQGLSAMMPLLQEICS
Text: Briefly, mammalian two-hybrid assays were set up in HEK293T cells transfected with expression plasmids encoding VP16AD-hCAR1 fusion protein, GAL4DBD-co-activator fusion proteins, and the reporter plasmid pG5luc. […] Fold interaction represents pG5luc reporter activity normalized to the Renilla luciferase internal control. Data presented are the mean±SD of at least three independent transfections. *, p<0.001 compared to DMSO treatment within the indicated co-activator set. […] Briefly, mammalian two-hybrid assays were set up in HEK293T cells transfected with expression plasmids encoding VP16AD-hCAR1 fusion protein, GAL4DBD-co-repressor fusion proteins, and the reporter plasmid pG51luc. […] Fold interaction represents pG5luc reporter activity normalized to the Renilla luciferase internal control. Data presented are the mean±SD of at least three independent transfections. *, p<0.001 compared to DMSO treatment within the indicated co-repressor set.
The pACT-hCAR1, pBIND-coregulator peptide and pG5-luc were cotransfected into HEK293T cells. Renilla luciferase is constitutively expressed from the pBIND plasmids. The Dual-Glo Luciferase Assay (Promega) was used to measure pG5-luc luciferase activity. The relative luciferase activity was determined by normalizing firefly luciferase activity with Renilla luciferase activity.

[2] = tested on: CAR-regulated genes in LS174T cells; assay: Quantitative real-time PCR in LS174T cells; assay type: cell-based; details: 1 μM CINPA1 or 5 μM PK11195, 24 h
Text: RNA was extracted, cDNA synthesized, and gene expression analyzed by performing real-time PCR using Taqman probes for each gene. […] LS174T cells were maintained in 10% charcoal-dextran-treated, FBS media for 4 days before the experiment. […] Briefly, human primary hepatocytes (HPH) were maintained in William's E media with supplements for 4 days before treatment. […] RNA extracted was used for cDNA synthesis and measured by performing quantitative real-time PCR assays with Taqman probes.
Briefly, LS174T were maintained in 10% charcoal-dextran treated-FBS media for 4 days prior to the experiment. […] For the data shown in both FIG. 12A and FIG. 12B, RNA extracted was used for cDNA synthesis and measured by quantitative real-time PCR with Taqman probes. MDR1 mRNA was normalized to the internal control 18S and DMSO treated samples were set to 1. *, p<0.05 when compared to DMSO samples.
Cell lines or human hepatocytes were treated with chemicals for 24-48 hours before RNA was extracted and purified by using the Maxwell 16LEV simplyRNA tissue kit (Promega). Then, cDNA was prepared from 2 μg of RNA, and diluted cDNA was used to perform quantitative RT-PCR assays by using TaqMan probes (ABI; 7500 Thermocycler) with 18S as the internal standard.

In the case of `CCOC(=O)Nc1ccc2c(c1)N(C(=O)CN(CC)CC)c1ccccc1CC2` [CINPA1], the “CAR-LBD interaction with PGC-1α coactivator peptide” value (GST-hCAR-LBD; dose response, FIG. 6A) is reported as “efficiently inhibits”, the IC50 (GST-hCAR-LBD; read-out: IC50 (CAR inverse agonistic activity)) is reported as 690 nM and the “corepressor (SMRTα, mNCoR) interaction with CAR-LBD” value ([1]; 5 μM CINPA1, 24 h) is reported as “increased interaction”. The “coactivator (SRC-1, TIF-2) binding to CAR-LBD” value ([1]; 5 μM CINPA1, presence or absence of CITCO, 24 h) was “reduced SRC-1 and TIF-2 coactivator binding”, the “CYP2B6 mRNA level” value [2] was “moderately reduced the levels of CYP2B6” and the “CYP3A4 mRNA level” value [2] was “without significantly affecting CYP3A4”. The “MDR1 mRNA level” value [2] was “reduced MDR1 levels”.
